Experiment [1] concerns patient with reduced renal function. Briefly: creatinine clearance (renal function) in a patient with autoimmune disease. In kind it is in vivo, human. From the text:
Patients with autoimmune disease often suffer significant inflammation of the kidneys, often causing renal dysfunction and/or destruction, which can lead to death in the absence of dialysis. A clinical laboratory measure of kidney function is creatinine clearance. Creatinine is the metabolic product formed from creatine when food is converted to energy. Creatinine is produced at a steady state and is affected very little by diet or normal physical activities. When a subject's kidneys are damaged and/or cannot function normally, the amount of creatinine excreted in the subject's urine decreases while its level in the blood increases. Thus, the blood level of creatinine indicates how well the kidneys are working. A high level generally means the kidneys are not functioning properly. A creatinine clearance test is performed both on a blood sample taken from the subject's vein and on a sample of urine collected over 24 hours. […] A normal creatinine level is less than 1, and normal CrCl levels are typically >100 mL/min. Dialysis is usually required when CrCl levels fall below about 20 mL/min.

Experiment [2] has as its system patient with Raynaud's syndrome. The experiment in a line: Raynaud's syndrome signs or symptoms. To be noted: 300 mg/kg per day in four equal doses over 24 hours. The class given is in vivo, human. From the text: This example sets forth the treatment of a patient with signs or symptoms of disease associated with reduced blood flow to an organ or tissue (correlated with hypertonicity of the associated blood vessels) using high doses of famciclovir, a compound of Formula (II) where B is H and each of R1 and R2 is CH3C(O)—, at a level and under conditions as explained below.
A patient weighing about 100 kg having multiple signs or symptoms of autoimmune disease had been ingesting famciclovir for several years at about 10 g per day taken 4 times daily during a 24 hour period. While the subject's condition was tolerable, they were in a regular state of pain in the joints and had other signs or symptoms discussed below.
The patient also presented signs or symptoms of Raynaud's syndrome, which involves marked or severe vasoconstriction and ischemia in the extremities, usually fingers and toes. As a result, the patient often experienced extreme pain, cold, discoloration, lack of sensation and weakness in the affected parts. […] The signs or symptoms returned when the frequency of taking the drug was lowered from once every 6 hours to once every 10 hours.

Experiment [3] relates to patient with muscle spasms, pain and inability to sleep. The experiment in a line: muscle spasms, pain, sleep and restless leg. To be noted: 300 mg/kg per day. The class given is in vivo, human. The method, then: Severe sleep disturbance can be caused by inability to relax the axial muscles due to hypertonus. It is not appreciated by those without hypertonus of the muscles, but it is necessary for the somatic muscles to relax to a predetermined level, before sleep will commence. Hypertonus can prevent that relaxation and prevent sleep. One patient was unable to achieve normal REM sleep for over 15 years, when their autoimmune disease was treated with the current treatments, which are essentially ineffective. However, this same patient was restored to essentially […] on the doses of this invention. Additionally this patient suffered from severe “restless leg syndrome” which is caused by the same disease conditions of the sympathetic chain as causes all above. […] At the levels of '114 these benefits were only slightly apparent, with the doses of this application normal REM sleep is restored. And, if the drug levels of the 2-aminopurines are allowed to drop for only a few hours the inability to sleep, and the severe restless leg return to the afflicted. […] The relationship of the appearance or suppression of the signs or symptoms of sleep disturbance to the onboard drug level is consistent and dramatic. […] The patient was administered 300 mg/kg of famciclovir per day and experienced relief of 90% of the spasms and pain. […]

Experiment [4] deals with patient with urination problems. Briefly: urination problems (benign prostate hypertrophy symptoms). In kind it is in vivo, human. To be noted: 300 mg/kg per day, taken in 6 hour increments. The method, then: The same high doses of famciclovir also relieved urination problems in a patient, such as hesitancy, weak stream and retention. These signs or symptoms are usually associated with benign prostate hypertrophy. However, without taking any prostate-specific drugs, but famciclovir alone, the patient achieved substantial relief of these symptoms. The signs or symptoms disappeared or were at least 90% relieved at 300 mg/kg of famciclovir per day, taken in 6 hour increments. The symptoms returned in about 10 hours when the drug was taken every 10 hours instead of every six hours. When the drug was taken every 6 hours, the symptoms, once again, disappeared.

The next experiment concerns patient lung function. Briefly: lung function by blood oxygenation (pulse oximetry). In kind it is in vivo, human. An excerpt:
Still another example of improvement that the inventor has discovered is improved pulmonary function. […] The pulmonary function was increased to 96% SATS by using the very high dose treatment of this invention. […] Thus the method of this invention can treat and reverse pulmonary hypertension and pulmonary fibrosis. […] Improvements of this kind in this range with this kind of patient (no known existing lung disease) are unusual. Thus, another aspect of this invention is a method to improve pulmonary function by administering a compound in accordance with the teachings herein. Treatments which cause similar improvements in patients with lung disease are direct acting relaxants upon the muscles of the vessels and the airways of the lung. The compounds of this invention have no such direct effect, and can only relax these critical lung muscles by suppressing the herpetically-induced “hypertonus” or resting tone of these muscles which was elevated above normal tone by the herpetic activity in the cells of the sympathetic chain which control these muscles.
An improvement in lung function was seen, possibly via relief of pulmonary hypertension, while taking famciclovir at 300 mg/kg per day. […] The patient's oxyhemoglobin increased from 92% to 96%. This small improvement is significant for this parameter in the 90%-100% range. […]

The subject of experiment [5] is patient with fibromyalgia. The experiment in a line: fibromyalgia pain. The class given is in vivo, human. To be noted: 300 mg/kg per day. The protocol: Yet another effect was alleviation of fibromyalgia: The pain was reduced by about 95% at 300 mg/kg of famciclovir per day.
The subject of experiment [6] is patient with nutcracker esophagus. The experiment in a line: nutcracker esophagus spasms. Conditions: 300 mg/kg per day. The class given is in vivo, human. An excerpt: Another condition experienced by the patient related to muscle spasms referred to as the “nutcracker esophagus.” This condition involves very painful spasms of the esophagus caused by food touching the hypersensitive “trigger points” inside the esophagus. These spasms can persist from minutes to hours. […] The condition recurs within a few hours when the drug is stopped.

For experiment [7], the system named is patient with reduced renal function. To be noted: on the doses of '114 (maximum 120 mg/kg/day); improved from 29 mL/min; cited from earlier work.

Where two headings read alike, the source gives them in different places.

As for `CC(=O)OCC(CCn1cnc2cnc(N)nc21)COC(C)=O` [famciclovir, 2-amino-9-(4-acetoxy-3-acetoxymethylbut-1-yl)purine], the creatinine clearance level in experiment [1] (dose increased from '114 level to levels of this application, from 89 mL/min, 100 kg man) is on record as 143 mL/min; in experiment [7], 89 mL/min. Besides, the impaired kidney function entry in experiment [1] (more than 250 mg/kg of body weight per day) is “significant improvement”. Also, in experiment [2], the “Raynaud's signs or symptoms (pain, cold, discoloration, lack of sensation, weakness)” value is reported as “dramatically abated”. The “relief of the spasms and pain” value in experiment [3] is given as 90%. Further, the “severe bowel and back pain and spasms relieved” value in experiment [3] was “about 80%”. In experiment [4], the “urination signs or symptoms (hesitancy, weak stream, retention) relieved” value was “at least 90%”. In addition, the “pulse O2 (oxyhemoglobin)” value in the experiment with patient lung function (after six months of 300 mg/kg per day, from 92%) came to 96%; in the experiment on patient lung function (several years taking about 100 mg/kg) it was 92%. In addition, the fibromyalgia pain reduced result in experiment [5] is “about 95%”. For the same compound, the nutcracker esophagus condition result in experiment [6] was “completely relieved and prevented”.

The values are drawn from patent US20110105434A1, “2-AMINO PURINE DERIVATIVES AND THEIR USE AS ANTI-HERPETIC AGENTS” (priority 2007, published 2011).
